Results reported in patent US20250243190A1, “NEW DEUTERATED RORGAMMA/RORGAMMAT INVERSE AGONISTS” (IMMUNIC AG, priority 2022, published 2025).

Columns and labels:
SARS-CoV-2 = assay: Antiviral activity on SARS-CoV-2, viral replication (YFP) assay; format: cell-based; conditions: Severe acute respiratory syndrome coronavirus 2, read-out: EC50 range
Source text: (§1) The assay for viral replication (YFP) and the cell viability assay has been described in general in Pathogens 2021; 10:1076 and applied to compounds of the present invention furnished the following results: […]

[1] = Mouse pharmacokinetics, oral or intravenous cassette dosing; format: in vivo, mice (C57BL/6J); conditions: C57BL/6J, whole blood, 3 female mice, 5 mg/kg oral cassette, sampling 0.5-24 h; for AUC(0-t): read-out: AUC0-24 h
Protocol: The pharmacokinetics of the compounds of the present invention was evaluated in 3 male and 3 female mice (C57BL/6J, 8 week old) after oral or intravenous cassette dosing to assess the oral bioavailability. Dose was 5 mg/kg (oral) and 1 mg/kg (intravenous), application volume was 5 mL/kg (oral) and 0.5 mL/kg (intravenous), vehicle was 5% solutol, 95% NaCl solution (at 0.9% saline concentration) for oral and 5% solutol, 5% Ethanol, 90% NaCl solution (at 0.9% saline concentration) for intravenous. At each designated time point (0.25, 0.5, 1, 2, 4, 8 and 24 h after dosing), 20 μL whole blood were collected from the tail vein into Li-heparin tubes, frozen on dry ice within 1-2 minutes of sampling and stored at −20° C. until processed for LC-MS analysis. The obtained data is as follows:
(§2) The pharmacokinetics of additional compounds of the present invention was evaluated in 3 female mice (C57BL/6J, 8 week old) after oral cassette dosing. Dose was 5 mg/kg, application volume was 5 mL/kg, vehicle was 5% solutol, 95% NaCl solution (at 0.9% saline concentration). At each designated time point (0.5, 1, 2, 4, 8 and 24 h after dosing), 20 μL whole blood were collected from the tail vein into Li-heparin tubes, frozen on dry ice within 1-2 minutes of sampling and stored at −20° C. until processed for LC-MS analysis. The obtained data is as follows:
as §2, with “(0.25, 0.5,” for “(0.5,”, “4 and” for “4,”, “8” for “8 and 24”, “analysis.” for “analysis. The obtained data is as follows:”

[2] = CC50 accompanying the influenza A assay; format: cell-based; conditions: influenza A test
Source text: (§3) The assay for measuring influenza A has been described in general in Antimicrob. Agents Chemother. 2015; 59:2062 and applied to compounds of the present invention furnished the following representative results: […]

[3] = Cell viability assay accompanying the SARS-CoV-2 assay; format: cell-based; conditions: cell viability assay of the SARS-CoV-2 test
Source text: as §1

RORγt = molecular target: T1, RORγt (Homo sapiens, UniProt P51449); assay: Indigo Biosciences Human RAR-related Orphan Receptor, Gamma Reporter Assay (in vitro inhibition of RORγt); format: cell-based; conditions: RORγt reporter cells, luciferase readout, 22-24 h incubation; read-out: IC50 range
T1 sequence (P51449 269-508 limits assumed): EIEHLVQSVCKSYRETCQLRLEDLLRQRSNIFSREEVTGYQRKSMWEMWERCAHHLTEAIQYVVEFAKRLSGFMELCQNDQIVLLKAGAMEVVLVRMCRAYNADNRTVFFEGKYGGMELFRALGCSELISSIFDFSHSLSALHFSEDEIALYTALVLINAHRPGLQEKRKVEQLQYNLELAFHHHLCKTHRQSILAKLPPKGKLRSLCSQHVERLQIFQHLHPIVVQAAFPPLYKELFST
Protocol: The in vitro inhibition of RORγt was measured using Indigo Biosciences Human RAR-related Orphan Receptor, Gamma Reporter Assay System (Product #IB304001-32) as described in the technical manual. In brief, 200 μL of Reporter Cells is dispensed into wells of the assay plate and preincubated for 4-6 h. Following the pre-incubation period, culture media are discarded and 200 µL/well of the prepared 1×-concentration treatment media are added. Following 22-24 h incubation, treatment media are discarded and Luciferase Detection Reagent is added. The intensity of light emission (in units of ‘Relative Light Units’; RLU) from each assay well is quantified using a plate-reading luminometer. Average values of RLU were determined for each treatment concentration. Non-linear regression analyses were performed and IC50 values determined using GraphPad Prism software. Provided inverse-agonists ursolic acid served as positive control.

[4] = Microsomal stability, mouse liver microsomes; conditions: male, CD-1, mouse, mouse liver microsomes 10003 CD-1, male (Corning), 60 min, Example 100 experiment
Protocol: (§4) The conversion to the metabolite was monitored by HPLC-MS/MS. Verapamil served as positive control.
The metabolism was monitored by HPLC-MS/MS.
Verapamil served as positive control. The intrinsic clearance was calculated from the measured remaining compound values.

[5] = system: respiratory syncytial virus (RSV, A2 strain expressing eGFP, Long strain or RSV-B); assay: Antiviral activity on RSV in HEp-2 cells; format: cell-based; conditions: human respiratory syncytial virus, HEp-2, 45 h, read-out: IC50 (50% inhibitory concentration)
Protocol: One day before infection, 20,000 HEp-2 cells per well were seeded in a 96-well plate. Example 100 or DMSO vehicle controls were applied on cell monolayers at indicated concentrations and infected immediately after treatment with respiratory syncytial virus (RSV, A2 strain expressing eGFP, Long strain or RSV-B) at MOI 0.001. Cells were incubated for 45 h at 37° C. and 5% CO2. RSV infection was quantified either by counting green fluorescent infected cells using CTL-Immunospot reader or by ICC staining using RSV-targeting antibody. Shown as mean values of triplicate wells normalized to the corresponding vehicle-treated controls ±SD.

influenza A = assay: Antiviral activity on influenza A; format: cell-based; conditions: Influenza A virus; read-out: EC50 range
Source text: as §3

[6] = Microsomal stability, human liver microsomes; conditions: both
Protocol: as §4
(§5) The metabolism was monitored by HPLC-MS/MS. Verapamil served as positive control. The intrinsic clearance was calculated from the measured remaining compound values.
as §5

[7] = Microsomal stability, rat liver microsomes; conditions: rat liver microsomes 9078001 (Corning), 60 min, Example 102 experiment
Protocol: as §4, §5

Structure (SMILES)	EC50 (SARS-CoV-2)	Cmax [1]	half-life [1]	AUC(0-t) [1]	CC50 [2]	CC50 [3]	IC50 (RORγt)	microsomal CLint [4]	IC50 [5]	EC50 (influenza A)	microsomal CLint [6]	microsomal CLint [7]
[2H]C([2H])([2H])OC(=O)c1c(-c2c(F)cccc2Cl)noc1-c1cnn(-c2cccc(Cl)c2)c1C(F)(F)F [Example 100, Methyl-d3 3-(2-chloro-6-fluorophenyl)-5-(1-(3-chlorophenyl)-5-(trifluoromethyl)-1H-pyrazol-4-yl)isoxazole-4-carboxylate]	< 100 nM	50.5 ng/mL	6.4 h	201 ng·h/mL	82000 nM	50000 nM	< 10 nM	24.4 µL/min/mg	< 50 nM	< 100 nM	–	–
[2H]C([2H])(OC1CC1)c1c(-c2c(F)cccc2Cl)noc1-c1cnn(-c2cccc(Cl)c2)c1C(F)(F)F [Example 102, 3-(2-Chloro-6-fluorophenyl)-5-(1-(3-chlorophenyl)-5-(trifluoromethyl)-1H-pyrazol-4-yl)-4-(cyclopropoxymethyl-d2)isoxazole]	< 100 nM	272 ng/mL	7.2 h	970 ng·h/mL	> 100000 nM	17000 nM	10 to 100 nM	–	–	100 to 1000 nM	6.7 µL/min/mg	29.4 µL/min/mg
